One molecule from ChEMBL document CHEMBL2074390, “Vectorial transport of bile salts across MDCK cells expressing both rat Na+-taurocholate cotransporting polypeptide and rat bile salt export pump” (Am J Physiol Gastrointest Liver Physiol, 2004) can be followed below.

This assay relates to MDCK.

Description: TP_TRANSPORTER: transepithelial transport (basal to apical) in Ntcp/Bsep double transfected MDCK cell

For `C[C@H](CCC(=O)NCCS(=O)(=O)O)[C@H]1CC[C@H]2[C@@H]3[C@H](O)C[C@@H]4C[C@H](O)CC[C@]4(C)[C@H]3C[C@H](O)[C@]12C`, the Km was 22.2 µM.
